Laboratory results taken from patent US11731964B2, “Benzamide antibacterial agents” (Purdue Research Foundation, priority 2018, dated 2023).
In brackets after ≈: the same amount, converted by molar mass.

Assays:
Type in all cases: cell-based
S. aureus [1] = test: Screening of compounds for growth inhibition of S. aureus at 16 μg/mL (OD600); details: compound at 16 μg/mL, 24 hours, compared to DMSO control
Method: Library compounds and analogs of F6 were dissolved in DMSO at 10 mg/mL. S. aureus was cultured in Mueller Hinton Broth to early exponential phase at which point culture aliquots were incubated with compounds at 16 μg/mL or DMSO in duplicates. The culture was continued at 37° C. for 24 hours. Aliquots (100 μL) of the cultures were dispensed into clear 96 well microtiter plates and OD600 was recorded. Percent normalized OD600 was obtained by using the equation [formula] wherein for a given compound, X is the OD600 of culture with the compound, Xo is that of media only and XT is the OD600 of the DMSO control.

E. faecalis ATCC 29212 = test: MIC, broth microdilution; details: Enterococcus faecalis, ATCC29212; E. faecalis ATCC 29212; read-out: MIC
Method: (§1) Bacteria were cultured in cation-adjusted Mueller Hinton Broth (for strains in Tables 1 and 4) or Brain Heart Infusion broth (for Enterococcus faecium) or Tryptic Soy Broth (all other bacteria) in a 96-well plate at 37° C. for at least 20 hours. The MIC was classified as the lowest concentration where no visual growth of bacteria was observed. The minimum bactericidal concentration (MBC) was tested by spotting 4 μL from wells with no growth onto Tryptic Soy Agar (TSA) plates. Plates were incubated at 37° C. for at least 18 hours before recording the MBC.

[2] = tested on: VRE (E. faecalis) ATCC 51575; test: MIC, broth microdilution; details: VRE (E. faecalis) ATCC 51575; read-out: MIC
Method: as §1

MRSA ATCC 33592 = test: MIC, broth microdilution; details: Staphylococcus aureus; MRSA ATCC 33592; read-out: MIC
Method: as §1

[3] = tested on: L. monocytogenes ATCC 19115; test: MIC, broth microdilution; details: Listeria monocytogenes, ATCC19115; L. monocytogenes ATCC 19115; read-out: MIC
Method: as §1

S. aureus ATCC 25923 = test: MIC, broth microdilution; details: Staphylococcus aureus, ATCC25923; S. aureus ATCC 25923; read-out: MIC
Method: as §1

[4] = tested on: C. difficile NR-32904 (P30); test: Clostridium difficile inhibition analysis
[5] = tested on: C. difficile NR-32883 (P2); test: Clostridium difficile inhibition analysis
[6] = tested on: Clostridium difficile ATCC BAA 1801; test: Clostridium difficile inhibition analysis
[7] = tested on: C. difficile NR-13432 (isolate 6); test: Clostridium difficile inhibition analysis
[8] = tested on: C. difficile NR-32891 (P13); test: Clostridium difficile inhibition analysis
[9] = tested on: C. difficile NR-32895 (P19); test: Clostridium difficile inhibition analysis
[10] = tested on: C. difficile NR-13435 (isolate 9); test: Clostridium difficile inhibition analysis
[11] = tested on: Clostridium difficile ATCC 9689; test: Clostridium difficile inhibition analysis; details: Table 6, ATCC 9689
S. aureus [12] = test: MIC (Table 5, strain not given); details: Staphylococcus aureus; S. aureus (Table 5)
Method: as §1

[13] = tested on: Clostridium difficile ATCC 43255; test: Clostridium difficile inhibition analysis; details: Table 6, ATCC 43255

| Structure (SMILES) | MIC (E. faecalis ATCC 29212) [µg/mL] | MIC [2] [µg/mL] | MIC (MRSA ATCC 33592) [µg/mL] | MIC [3] [µg/mL] | MIC (S. aureus ATCC 25923) [µg/mL] | inhibition of growth of S. aureus (S. aureus [1]) | other results |
| --- | --- | --- | --- | --- | --- | --- | --- |
| COc1cccc(-c2nnc(NC(=O)c3ccc(S(=O)(=O)N(C)CC4CCCO4)cc3)o2)c1 (stereo not drawn) [Compound G8] | 32 (≈ 67.7 µM) | 32 (≈ 67.7 µM) | 32 (≈ 67.7 µM) | 32 (≈ 67.7 µM) | 32 (≈ 67.7 µM) | significantly inhibited the growth |  |
| CC1CC(C)CN(S(=O)(=O)c2cncc(C(=O)Nc3nnc(-c4ccc(C(F)(F)F)cc4)o3)c2)C1 (stereo not drawn) [HSGN 216, 5-((3,5-dimethylpiperidin-1-yl)sulfonyl)-N-(5-(4-(trifluoromethyl)phenyl)-1,3,4-oxadiazol-2-yl)nicotinamide] |  |  |  |  |  |  | Antibacterial activity ([4]; Table 7, C. difficile NR-32904 (P30)): 0.5; Antibacterial activity ([5]; Table 7, C. difficile NR-32883 (P2)): 0.06; Antibacterial activity ([6]; Table 7, C. difficile ATCC BAA 1801): 0.25; Antibacterial activity ([7]; Table 7, C. difficile NR-13432 (isolate 6)): 0.125; Antibacterial activity ([8]; Table 7, C. difficile NR-32891 (P13)): 0.5; Antibacterial activity ([9]; Table 7, C. difficile NR-32895 (P19)): 0.125; Antibacterial activity ([10]; Table 7, C. difficile NR-13435 (isolate 9)): 0.125 |
| O=C(Nc1nnc(-c2ccc(C(F)(F)F)cc2)o1)c1ccc(S(=O)(=O)Nc2ccccc2)cc1 [HSGN-118, 4-(N-phenylsulfamoyl)-N-(5-(4-(trifluoromethyl)phenyl)-1,3,4-oxadiazol-2-yl)benzamide] |  |  | 4 (≈ 8.19 µM) |  |  |  | Clostridium difficile inhibition ([4]; Table 6, P30): 0.5; Clostridium difficile inhibition [11]: 0.5; Clostridium difficile inhibition ([5]; Table 6, P2): 0.5; Clostridium difficile inhibition ([6]; Table 6, ATCC BAA 1801): 0.5; Clostridium difficile inhibition ([7]; Table 6, I6): 0.5; Clostridium difficile inhibition ([8]; Table 6, P13): 1; MIC (S. aureus [12]): 4 µg/mL (≈ 8.19 µM); Clostridium difficile inhibition ([9]; Table 6, P19): 0.5; Clostridium difficile inhibition ([10]; Table 6, I9): 0.5; Clostridium difficile inhibition [13]: 0.5 |

More lines, main results first:

| MIC (E. faecalis ATCC 29212) [µg/mL] | MIC [2] [µg/mL] | MIC (MRSA ATCC 33592) [µg/mL] | MIC [3] [µg/mL] | MIC (S. aureus ATCC 25923) [µg/mL] | Structure (SMILES) | inhibition of growth of S. aureus (S. aureus [1]) | other results |
| --- | --- | --- | --- | --- | --- | --- | --- |
| 16 (≈ 37 µM) | 16 (≈ 37 µM) | 8 (≈ 18.5 µM) | 16 (≈ 37 µM) | 8 (≈ 18.5 µM) | CC1CCCCN1S(=O)(=O)c1ccc(C(=O)Nc2nnc(-c3cccs3)o2)cc1 (stereo not drawn) [Compound F5] | significantly inhibited the growth |  |
| 4 (≈ 8.42 µM) | 2 (≈ 4.21 µM) | 1 (≈ 2.11 µM) | 2 (≈ 4.21 µM) | 2 (≈ 4.21 µM) | CC1CC(C)CN(S(=O)(=O)c2ccc(C(=O)Nc3nnc(-c4ccc(Cl)cc4)o3)cc2)C1 (stereo not drawn) [Compound F6-5, N-(5-(4-Chlorophenyl)-1,3,4-oxadiazol-2-yl)-4-((3,5-dimethylpiperidin-1-yl)sulfonyl)benzamide] | active |  |
